According to patent US6344571B2, “Water soluble analogs and prodrugs of paclitaxel” (Pharmachemie B.V., priority 1998, dated 2002):
Converted amounts (≈) assume the structure as drawn. “Also recorded” adds a separate entry of the source. Read-outs that look alike come from different tables or passages of the source.

Tests used:
[1] = Stability in PBS-buffer (pH 7.4), degradation to paclitaxel; type: physicochemical; conditions: for stability in PBS buffer: PBS-buffer pH 7.4
Experimental: The paclitaxel prodrugs (5, 6, 8, 11) were dissolved in water, sonicated and centrifuged. 100 μl of the above fluid was mixed with 400 μl of plasma (heparin) or PBS-buffer (pH7.4), respectively, in such way that the concentration of the prodrug was about 0.5 mg/mL. […] After mixing for 2 minutes (using a vortex), this mixture was centrifuged (2 minutes, 13000 g) and 100 μl EtOAc was evaporated (30 minutes, in vacuo). The (pro)drugs were dissolved in 50 μl eluent and analyzed by HPLC (Longnecker, S. M. Cancer Treat Rep. 1987, 71, 53-59). The efficiency for the extraction of paclitaxel was about 80%.

IGROV Ovarian cancer = assay: Antiproliferative SRB assay, IGROV; type: cell-based, human; conditions: 37° C. 72 h, vs untreated cells
Description: (§1) Determination of the IC50-values for the new synthesized prodrugs have been determined with a variety of cell lines and have been compared with the IC50-value of paclitaxel 1 (see table II) Compounds 1, 5, 8, 11,:
(§2) The following human tumor cell lines were used:
(§3) Cell lines WIDR, M19 MEL, A498 and IGROV belong to the currently used anti-cancer screening panel of the National Cancer Institute, USA (Skeham et al., J. Nat. Cancer Inst. 85: 1107-1112, 1990).
(§4) Prior to the experiments a myocoplasma test was carried out on all cell lines and found to be negative. All cell lines, except ETSA-T, were maintained in a continuous logarithmic culture in RPMI medium with Hepes and Phenol red supplemented with 10% bovine calf serum (BCS), penicillin 111 IU/ml, streptomycin 111 μg/ml, gentamycin 46 μg/ml and insulin 10.6 μg/ml. EVSA-T was maintained in DMEM with 5% BCS and antibiotics as described. The cells were mildly trypsinized for passage and for use in experiments.
(§5) The compounds of this invention were dissolved to a concentration of 177147 ng/ml as follows:
(§6) On day 0, 200 μl of trypsinized tumor cells (2*10^3 cells/well) were plated in 96-wells flatbottom microtiter plates (Costar, no. 3799, Badhoevedorp, The Netherlands). The plates were preincubated 24 hr at 37° C., 5% CO2 to allow the cells to adhere.
(§7) […] The final volume of column 3 was adjusted to 200 μl with PBS. Column 2 was used for the blank. To column 1 PBS was added to diminish interfering evaporation.
(§8) […] Subsequently the cells were fixed with 10% trichloroacetic acid in Milli Q water (Millipore, Etten Leur, The Netherlands) and placed at 4° C. for one hour.
(§9) After five washings with tap water, the cells were stained for at least 15 min. with 0.4% SRB, dissolved in 1% acetic acid, and subsequently washed with 1% acetic acid to remove the unbound stain. The plates were air dried and the bound protein was dissolved by using 150 μl 10 mmol/l tris base. The absorbance was read at 540 nm using an automatic microplate reader (Titertec, Flow Laboratories LtD., Irvine, Scotland). Data were used for construction of concentration-response curves and determination of the IC50-value.

A498 Renal cancer = assay: Antiproliferative SRB assay, A498; type: cell-based, human; conditions: 37° C. 72 h, vs untreated cells
Description: as §1, §2, §3, §4, §5, §6, §7, §8, §9

[2] = Water solubility (suspension in water or PBS-buffer, HPLC)
Experimental: Water Solubility: Paclitaxel or paclitaxel prodrugs (5, 6, 8, 11) were suspended in water or PBS-buffer (pH 7.4) until a concentration was reached of 2 mg/ml. The suspensions were sonicated for 15 minutes and centrifuged (13000 g) for 10 minutes (Nicolaou, K. C. et al. Nature 1993, 364, 464-466). The above fluid was analyzed, using HPLC. The paclitaxel (prodrug) concentration was determined using paclitaxel standards in methanol.
HPLC: Rheodyne injection valve (20 μl loop); Lichrospher 5RP18 column (200×3 mm, Chrompack); UV-detector (Model 759A, Applied Biosystems); eluent: CH3CN/MeOH/H2O: 5/1/4 in 10 mM NH4OAc (pH 5.0) (Willey, T. A. J. Chromatography 1993, 621, 231-238). The detection of the (pro)drugs was performed at 226 nm, where it is supposed that the extinction coefficients of paclitaxel and paclitaxel prodrugs are equal. The concentrations were determined by measuring the relative area of paclitaxel or the paclitaxel prodrugs.

M19 MEL Melanoma = assay: Antiproliferative SRB assay, M19 MEL; type: cell-based, human; conditions: vs untreated cells
Description: as §1, §2, §3, §4, §5, §6, §7, §8, §9

WIDR Colon cancer = assay: Antiproliferative SRB assay, WIDR; type: cell-based, human; conditions: vs untreated cells
Description: as §1, §2, §3, §4, §5, §6, §7, §8, §9

[3] = Stability in human plasma, degradation to paclitaxel; type: in vitro ADME; conditions: for T1/2 Human Plasma: human plasma (heparin), 37° C., time in which 50% of the analog is degraded to paclitaxel
Experimental: The paclitaxel prodrugs (5, 6, 8, 11) were dissolved in water, sonicated and centrifuged. 100 μl of the above fluid was mixed with 400 μl of plasma (heparin) or PBS-buffer (pH7.4), respectively, in such way that the concentration of the prodrug was about 0.5 mg/mL. The plasma or PBS-buffer, respectively, was incubated at 37° C. and on different points in time (T=0, 0.5, 1, 4, 20, 48 hours) 50 μl was extracted with 150 μl of EtOAc. After mixing for 2 minutes (using a vortex), this mixture was centrifuged (2 minutes, 13000 g) and 100 μl EtOAc was evaporated (30 minutes, in vacuo). The (pro)drugs were dissolved in 50 μl eluent and analyzed by HPLC (Longnecker, S. M. Cancer Treat Rep. 1987, 71, 53-59). The efficiency for the extraction of paclitaxel was about 80%.

EVSA-T Breast cancer = assay: Antiproliferative SRB assay, EVSA-T; type: cell-based, human; conditions: 37° C. 72 h, vs untreated cells
Experimental: as §1, §2
(§10) MCF7 is estrogen receptor ER+/Progesterone receptor PgR+ and EVSA-T is ER-/PgR-.
as §4, §5, §6, §7, §8, §9

MCF7 Breast cancer = assay: Antiproliferative SRB assay, MCF7; type: cell-based, human; conditions: 37° C. 72 h, vs untreated cells
Experimental: as §1, §2, §10, §4, §5, §6, §7, §8, §9

H226 = assay: Antiproliferative SRB assay, H226; type: cell-based, human; conditions: vs untreated cells
Experimental: as §1, §2
HA266 non small cell lung cancer
as §4, §5, §6, §7, §8, §9

OVCAR-3 cells = assay: In vitro antiproliferative effects, OVCAR-3; type: cell-based, human; conditions: for IC50: 37° C. 72 h, vs untreated cells
Experimental: The human tumor cell line OVCAR-3 was used. OVCAR is an ovarium carcinoma.
In vitro antiproliferative effects: paclitaxel or paclitaxel prodrugs were dissolved in DMSO to give a concentration of 5 mM. Concentrations were verified by measuring the OD at 226 nm. The antiproliferative effects of drugs and prodrugs were determined with the use of OVCAR-3 cells. Cells in supplemented tissue culture medium (DMEM, 10% fetal calf serum with 50 IU/ml penicillin and 50 microgram/ml streptomycin) were seeded in triplicate in 96-well culture plates (5000/well, 100 microliter). After 24 h, 100 microliter of culture medium containing drug or prodrug was added to give final concentrations ranging from 1 picomolar to 10 micromolar.
The cells were incubated for an additional 72 h, fixed with 10% trichoroacetic acid and stained with sulforhodamine B. The absorbance at 540 nm was read and the antiproliferative effects were expressed as IC50 values, inhibition when compared with control cell growth (Houba et al. Bioconj. Chem. 1996, 7, 606-611).

human tumor cell lines = assay: Cytotoxic activity in human tumor cell lines, overall comparison with paclitaxel; type: cell-based
Experimental: as §1, §2, §6
On day 2, 100 μl of the highest drug concentration was added to the wells of column 12 and from there diluted 3-fold to column 3 by serial transfer of 100 μl using an 8 channel micropipette. The final volume of column 3 was adjusted to 200 μl with PBS. Column 2 was used for the blank. To column 1 PBS was added to diminish interfering evaporation.
On day 7 the incubation was terminated by washing the plates twice with PBS. […]
After five washings with tap water, the cells were stained for at least 15 min. with 0.4% SRB, dissolved in 1% acetic acid, and subsequently washed with 1% acetic acid to remove the unbound stain. […] The absorbance was read at 540 nm using an automatic microplate reader (Titertec, Flow Laboratories LtD., Irvine, Scotland). […]

| SMILES | stability in PBS buffer [1] | paclitaxel detected in PBS-buffer after 24 hours ([1]; PBS-buffer pH 7.4, after 24 hours) | IC50 IGROV (IGROV Ovarian cancer) [µg/mL] | IC50 A498 (A498 Renal cancer) [µg/mL] | Water Solubility [2] [µg/mL] | IC50 M19 MEL (M19 MEL Melanoma) [µg/mL] | IC50 WIDR (WIDR Colon cancer) [µg/mL] | T1/2 Human Plasma [3] | IC50 EVSA-T (EVSA-T Breast cancer) [µg/mL] | IC50 MCF7 (MCF7 Breast cancer) [µg/mL] | IC50 H226 (H226) [µg/mL] | water solubility compared with paclitaxel [2] | water solubility relative to paclitaxel (times more watersoluble) [2] | activity against OVCAR-3 cells compared to paclitaxel (OVCAR-3 cells) | IC50 (OVCAR-3 cells) [nM] | degradation to paclitaxel in human plasma [3] | amount degraded to paclitaxel within 4 hours ([3]; within 4 hours, matrix not printed in the sentence (human plasma per Table I)) | cytotoxic activity compared to paclitaxel (human tumor cell lines) | Water Solubility ([2]; suspended to 2 mg/ml, sonicated 15 minutes, centrifuged, HPLC) [µg/mL] |
| --- | --- | --- | --- | --- | --- | --- | --- | --- | --- | --- | --- | --- | --- | --- | --- | --- | --- | --- | --- |
| CC(=O)O[C@H]1C(=O)[C@@]2(C)[C@H]([C@H](OC(=O)c3ccccc3)[C@]3(O)C[C@H](OC(=O)[C@H](OC(=O)CC(O)C(=O)O)[C@@H](NC(=O)c4ccccc4)c4ccccc4)C(C)=C1C3(C)C)[C@]1(OC(C)=O)CO[C@@H]1C[C@@H]2O (stereo partly drawn) [Compound 5, 2′-Malylpaclitaxel] | sufficient stability; also recorded: stable | only traces | <0.003 | 0.039 (≈ 0.0402 µM) | 200 | 0.003 (≈ 0.00309 µM) | <0.003 | 20 h | <0.003 | <0.003 | 0.01 (≈ 0.0103 µM) | – | – | – | – | – | – | – | – |
| CC(=O)O[C@H]1C(=O)[C@@]2(C)[C@H]([C@H](OC(=O)c3ccccc3)[C@]3(O)C[C@H](OC(=O)[C@H](OC(=O)CC(O)C(=O)[O-])[C@@H](NC(=O)c4ccccc4)c4ccccc4)C(C)=C1C3(C)C)[C@]1(OC(C)=O)CO[C@@H]1C[C@@H]2O.[Na+] (stereo partly drawn) [Compound 6, Sodium salt of 2′-malylpaclitaxel] | sufficient stability | – | 0.233 | <0.003 | 600 | <0.003 | <0.003 | 4 h | <0.003 | <0.003 | <0.003 | Best water solubility | sixty | comparable | 0.8 | fast hydrolysis rate | about 500 | – | – |
| CC(=O)OC1C(=O)C2(C)C(OC(=O)CC(O)C(=O)O)CC3OCC3(OC(C)=O)C2C(OC(=O)c2ccccc2)C2(O)CC(OC(=O)C(OC(=O)CC(O)C(=O)O)C(NC(=O)c3ccccc3)c3ccccc3)C(C)=C1C2(C)C (stereo not drawn) [Compound 8, 2′, 7-Bis(malyl)paclitaxel] | sufficient stability; also recorded: no degradation to the parent drug | – | 0.049 (≈ 0.0451 µM) | 0.436 (≈ 0.401 µM) | 500 | 0.311 (≈ 0.286 µM) | 0.167 (≈ 0.154 µM) | no pacl.^b | 0.059 (≈ 0.0543 µM) | 0.069 (≈ 0.0635 µM) | 0.241 (≈ 0.222 µM) | – | – | – | – | no degradation to the parent drug | – | reduced cytotoxic activity | – |
| CC(=O)O[C@H]1C(=O)[C@]2(C)[C@@H](OC(=O)CC(O)C(=O)O)C[C@H]3OC[C@@]3(OC(C)=O)[C@H]2[C@H](OC(=O)c2ccccc2)[C@]2(O)C[C@H](OC(=O)[C@H](O)[C@@H](NC(=O)c3ccccc3)c3ccccc3)C(C)=C1C2(C)C (stereo partly drawn) [Compound 11, 7-Malylpaclitaxel] | sufficient stability; also recorded: no degradation to the parent drug | – | 0.241 (≈ 0.248 µM) | 1.435 (≈ 1.48 µM) | 3 | 1.344 (≈ 1.39 µM) | 0.589 (≈ 0.607 µM) | no pacl.^b | 0.3 (≈ 0.309 µM) | 0.39 (≈ 0.402 µM) | 0.706 (≈ 0.728 µM) | – | – | – | – | no degradation to the parent drug | – | reduced cytotoxic activity | – |
| CC(=O)O[C@H]1C(=O)[C@@]2(C)[C@H]([C@H](OC(=O)c3ccccc3)[C@]3(O)C[C@H](OC(=O)[C@H](O)[C@@H](NC(=O)c4ccccc4)c4ccccc4)C(C)=C1C3(C)C)[C@]1(OC(C)=O)CO[C@@H]1C[C@@H]2O [paclitaxel, Paclitaxel] | – | – | 0.033 (≈ 0.0386 µM) | 0.005 (≈ 0.00586 µM) | – | <0.003 | <0.003 | – | <0.003 | <0.003 | <0.003 | – | – | – | 0.25 | – | – | – | 10 |
